From patent US12134721B2, “Complexes and ligands” (The General Hospital Corporation, priority 2018, dated 2024)
One block for each compound: values may come before it.

What was measured:
Format in all cases: physicochemical
[1] = Fluorescence lifetimes of selected lanthanide (Tb, Eu, Dy, Sm) complexes
[2] = as above; conditions: Table 1
Method: (§1) Photophysical measurements: UV/visible and emission spectra were recorded on a Horiba Scientific Dual FL spectrophotometer. Ligands loaded with terbium were diluted into 1×PBS (pH 7.4) to a concentration of 20 uM (for absorbance) or 4 uM (for emission). For emission spectra, the data were normalized to the highest fluorescence signal. The fluorescence lifetime was determined by plotting the ln of the signal decay over time then solving for r in Equation 1:
(§2) [formula] where It is the intensity at time t, α is a normalization term (the preexponential factor) and τ is the lifetime.

[3] = Photophysical measurements of terbium complexes in 1x PBS pH 7.4; conditions: for τPBS (fluorescence lifetime): 1x PBS pH 7.4; for Emission λmax: 1x PBS pH 7.4, 4 uM; for εmax / λmax, Abs: 1x PBS pH 7.4, 20 uM
Method: as §1, §2

[4] = Stability of Tb complexes (10 nM) in various buffers over 7 days; conditions: buffers with 0.05% TWEEN-20
Method: The stability of NCP190-Tb (10 nM) was measured over the course of 7 days in various different buffers. All buffers contained 0.05% TWEEN-20 detergent.
The stability of NCP134-Tb (10 nM) was measured over the course of 7 days in various different buffers. All buffers contained 0.05% TWEEN-20 detergent.

[5] = Dy and Sm complexes of NCP189, Table 3

Life Time ([1]; Eu complexes, Table 2): 657 µs
Compound: O=C(O)CCCCCN1CCN2CCNC(=O)c3cccc(c3O)C(=O)NCCN(CCNC(=O)c3cccc(c3)C1=O)CCN1CCNC(=O)c3cccc(c3O)C(=O)NCCN(CCNC(=O)c3cccc(c3O)C(=O)NCC1)CC2 [NCP 259-Eu]

Life Time [2]: 1.37 ms
Compound: O=C(O)CCCCCN1CCN2CCNC(=O)c3cccc(c3O)C(=O)NCCN(CCNC(=O)c3cccc(c3)C1=O)CCN1CCNC(=O)c3cccc(c3O)C(=O)NCCN(CCNC(=O)c3cccc(c3O)C(=O)NCC1)CC2 [NCP 259-Tb]

Life Time ([1]; Eu complexes, Table 2): 505 ms
Compound: O=C1NCCN2CCNC(=O)c3cccc(c3O)C(=O)NCCN(CCNC(=O)c3cccc1c3O)C(=O)N1CCNC(=O)c3cccc(c3O)C(=O)NCCN(CCNC(=O)c3cccc(c3O)C(=O)NCC1)CC2 [NCP 275-Eu]

Life Time [2]: 1.20 ms
Compound: O=C(O)CCCCCN1CCN2CCNC(=O)c3cccc(c3O)C(=O)NCCN(CCNC(=O)c3cccc(n3)C1=O)CCN1CCNC(=O)c3cccc(c3O)C(=O)NCCN(CCNC(=O)c3cccc(c3O)C(=O)NCC1)CC2 [NCP 227-Tb]

Life Time [2]: 1.39 ms
Compound: O=C1NCCN2CCNC(=O)c3cccc(c3O)C(=O)NCCN(CCNC(=O)c3cccc1c3O)C(=O)N1CCNC(=O)c3cccc(c3O)C(=O)NCCN(CCNC(=O)c3cccc(c3O)C(=O)NCC1)CC2 [NCP 275-Tb]

Life Time ([1]; Eu complexes, Table 2): 609 µs
Compound: O=C1NCCN2CCNC(=O)c3cccc(c3O)C(=O)NCCN(CCNC(=O)c3cccc1c3O)CC(=O)N1CCNC(=O)c3cccc(c3O)C(=O)NCCN(CCNC(=O)c3cccc(c3O)C(=O)NCC1)CC2 [NCP 272-Eu]

Life Time [2]: 1.53 ms
Compound: O=C1NCCN2CCNC(=O)c3cccc(c3O)C(=O)NCCN(CCNC(=O)c3cccc1c3O)CC(=O)N1CCNC(=O)c3cccc(c3O)C(=O)NCCN(CCNC(=O)c3cccc(c3O)C(=O)NCC1)CC2 [NCP 272-Tb]

Continued, compound first:

Compound: Nc1nc(CCc2ccc(CNC(=O)CCCCCN3CCN4CCNC(=O)c5cccc(c5O)C(=O)NCCN(CCNC(=O)c5cccc(c5O)C3=O)CCN3CCNC(=O)c5cccc(c5O)C(=O)NCCN(CCNC(=O)c5cccc(c5O)C(=O)NCC3)CC4)cc2)c2nc[nH]c2n1 [NCP 191-Tb]
Life Time [2]: 2.11 ms

Compound: O=C1NCCN2CCNC(=O)c3cc(Br)cc(c3O)C(=O)NCCN(CCNC(=O)c3cc(Br)cc1c3O)CCN1CCNC(=O)c3cc(Br)cc(c3O)C(=O)NCCN(CCNC(=O)c3cc(Br)cc(c3O)C(=O)NCC1)CC2 [NCP 158-Tb]
τPBS (fluorescence lifetime) [3]: 0.97 ms | Emission λmax [3]: 545 nm | εmax [3]: 13,750 M^−1cm^−1 | λmax, Abs [3]: 355 nm | Life Time [2]: 0.97 ms

Compound: O=C(O)CCCCCN1CCN2CCNC(=O)c3cccc(c3O)C(=O)NCCN(CCNC(=O)c3cccc(c3O)C1=O)CCN1CCNC(=O)c3cccc(c3O)C(=O)NCCN(CCNC(=O)c3cccc(c3O)C(=O)NCC1)CC2 [NCP 189-Eu]
Life Time ([1]; Eu complexes, Table 2): 598 µs

Compound: O=C(O)CCCCCN1CCN2CCNC(=O)c3cccc(c3O)C(=O)NCCN(CCNC(=O)c3cccc(c3O)C1=O)CCN1CCNC(=O)c3cccc(c3O)C(=O)NCCN(CCNC(=O)c3cccc(c3O)C(=O)NCC1)CC2 [NCP 189-Tb]
Life Time [2]: 1.79 ms

Compound: O=C(CCCCCN1CCN2CCNC(=O)c3cccc(c3O)C(=O)NCCN(CCNC(=O)c3cccc(c3O)C1=O)CCN1CCNC(=O)c3cccc(c3O)C(=O)NCCN(CCNC(=O)c3cccc(c3O)C(=O)NCC1)CC2)NCCOCCOCCCCCCCl [NCP 190-Tb]
Stability in various buffers [4]: only significantly destabilized by EDTA | Life Time [2]: 2.46 ms

Compound: O=C(O)CN1CCN2CCNC(=O)c3cccc(c3O)C(=O)NCCN(CCNC(=O)c3cccc(c3O)C1=O)CCN1CCNC(=O)c3cccc(c3O)C(=O)NCCN(CCNC(=O)c3cccc(c3O)C(=O)NCC1)CC2 [NCP 144-Tb]
τPBS (fluorescence lifetime) [3]: 2.06 ms | Emission λmax [3]: 545 nm | εmax [3]: 19,230 M^−1cm^−1 | λmax, Abs [3]: 340 nm | Life Time [2]: 2.06 ms

Compound: O=C1NCCN2CCNC(=O)c3cccc(c3O)C(=O)NCCN(CCNC(=O)c3cccc1c3O)CCN1CCNC(=O)c3cccc(c3O)C(=O)NCCN(CCNC(=O)c3cccc(c3O)C(=O)NCC1)CC2 [NCP 134-Tb]
Stability in various buffers [4]: only significantly destabilized by EDTA, however to a greater extent relative to NCP190-Tb | τPBS (fluorescence lifetime) [3]: 2.10 ms | Emission λmax [3]: 545 nm | εmax [3]: 11,600 M^−1cm^−1 | λmax, Abs [3]: 340 nm | Life Time [2]: 2.56 ms

Compound: BH(2,2)IAM-N-carboxymethyl-Halotag [NCP166]
τPBS (fluorescence lifetime) [3]: 2.23 ms | Emission λmax [3]: 545 nm | εmax [3]: 10,800 M^−1cm^−1 | λmax, Abs [3]: 340 nm

Compound: O=C(O)CCCCCN1CCN2CCNC(=O)c3cccc(c3O)C(=O)NCCN(CCNC(=O)c3cccc(c3O)C1=O)CCN1CCNC(=O)c3cccc(c3O)C(=O)NCCN(CCNC(=O)c3cccc(c3O)C(=O)NCC1)CC2 [NCP 189-Sm]
Life Time [1, 5]: 28.1 ms

Compound: O=C(O)CCCCCN1CCN2CCNC(=O)c3cccc(c3O)C(=O)NCCN(CCNC(=O)c3cccc(c3O)C1=O)CCN1CCNC(=O)c3cccc(c3O)C(=O)NCCN(CCNC(=O)c3cccc(c3O)C(=O)NCC1)CC2 [NCP 189-Dy]
Life Time [1, 5]: 22.7 ms

Compound: O=C(CN1CCN2CCNC(=O)c3cccc(c3O)C(=O)NCCN(CCNC(=O)c3cccc(c3O)C1=O)CCN1CCNC(=O)c3cccc(c3O)C(=O)NCCN(CCNC(=O)c3cccc(c3O)C(=O)NCC1)CC2)NCCOCCOCCCCCCCl [NCP 166-Tb]
Life Time [2]: 2.23 ms

Compound: O=C(O)CCCCCN1CCN2CCNC(=O)c3cccc(c3O)C(=O)NCCN(CCNC(=O)c3cccc(n3)C1=O)CCN1CCNC(=O)c3cccc(c3O)C(=O)NCCN(CCNC(=O)c3cccc(c3O)C(=O)NCC1)CC2 [NCP 227-Eu]
Life Time ([1]; Eu complexes, Table 2): 651 µs

Compound: Nc1nc(CCc2ccc(CNC(=O)CN3CCN4CCNC(=O)c5cccc(c5O)C(=O)NCCN(CCNC(=O)c5cccc(c5O)C3=O)CCN3CCNC(=O)c5cccc(c5O)C(=O)NCCN(CCNC(=O)c5cccc(c5O)C(=O)NCC3)CC4)cc2)c2[nH]cnc2n1 [NCP 169-Tb]
Life Time [2]: 1.99 ms
